The values that follow come from patent US5789589A, “Guanine analog phosphates” (Drug Innovation & Design, Inc., priority 1996, dated 1998).

The test system of one data set is TK^+ HSV 1. Nature of the data set: In vitro antiviral activity (CPE) against TK^+ HSV-1 (BWVL#10186) in Vero cells. Format: cell-based, Herpes type 1 virus (HSV-1), human clinical isolate. Particulars: for EC50: Human alphaherpesvirus 1, TK^+ HSV 1, Vero cells, CPE, about 72 hours, read-out: ED50 (the source's name); for Activity compared with acyclovir (in words): in vitro, TK^+ HSV-1. How it is done:
(§1) The following test were carried out essentially as described by Sidwell and Huffman (Sidwell, et al., App. Microbiol., 22:797-801 (1971)), and was used in the reports on the in vitro antiviral activity of ribavirin (Sidwell, et al. Science, 177:705-706 (1972); Huffman, et al., Antimicrob. Ag. Chemother., 3:235-241 (1973)).
(§2) Herpes type 1 virus (HSV-1), BWVL#10186, is a thymidine kinase positive (TK^+) human clinical isolate provided by Dr. M. Nixon Ellis, Burroughs Wellcome Co. (Research Triangle Park, N.C.). The BWVL#10168 strain of HSV-1 is a TK- patient isolate (resistant partner to 10186) that was also provided by Dr. Ellis. Both strains were prepared in Vero cells, ampuled, and frozen at -80° C. Antiviral testing was performed in Vero cells.
(§3) Vero (continuously passaged African green monkey kidney) was obtained from the American Type Culture Collection (ATCC) (Rockville, Md.). Growth medium was Medium 199, 5% FBS and 0.1% NaHCO3. Test medium was Eagle's minimum essential medium with non-essential amino acids (MEM), with 2% FBS, 0.18% NaHCO3 and 50 μg gentamicin/ml. The growth medium contained no antibiotics.
(§4) Compounds were weighed and a sufficient amount added to DMSO (American Type Culture Collection, Rockville, Md.) to prepare a solution at 20 mg/ml.
(§5) Cells were seeded to 96-well flat-bottomed tissue culture plates (Corning Glass Works, Corning, N.Y.), 0.2 ml/well, at the proper cell concentration, and incubated overnight at 37° C. in order to establish cell monolayers. The growth medium was decanted and the various dilutions of test compound were added to each well (4 wells/dilution, 0.1 ml/well). Compound diluent medium was added to cell and virus control wells (0.1 ml/well). Virus, diluted in test medium, was added to compound test wells (3 wells/dilution of compound) and to virus control wells at 0.1 ml/well. Virus was added approximately 5 minutes after compound. Test medium without virus was added to all toxicity control wells (1 well/dilution of each test compound) and to cell control wells at 0.1 ml/well. The plates were sealed with plastic wrap (SARAN™) and incubated at 37° C. in a humidified incubator with 5% CO2, 95% air atmosphere until virus control had adequate cytopathic effect (CPE) readings. This was usually achieved after 72 hours. Cells were then examined microscopically for CPE, this being scored from 0 (normal cells) to 4 (maximal, 100%, CPE). The cells in the toxicity control wells were observed microscopically for morphologic changes attributed to cytotoxicity. This cytotoxicity was graded as: T (assigned 100% toxicity), PVH (assigned 80% cytotoxicity), PH (assigned 60% cytotoxicity), P (assigned 40% cytotoxicity), PSI (assigned 20% cytotoxicity), and 0 (normal cells). The 50% effective dose (ED50) and 50% cytotoxic dose (CD50) were calculated by regression analysis of the virus CPE data and the toxicity control data, respectively.
(§6) A known active substance, acyclovir, was run in the same manner as above for each batch of compounds tested.

Another data set concerns TK^- HSV 1. Nature of the data set: In vitro antiviral activity (CPE) against TK^- acyclovir resistant HSV-1 (BWVL#10168) in Vero cells. Format: cell-based, Herpes type 1 virus (HSV-1), patient isolate. As to conditions: for EC50: Human alphaherpesvirus 1, Vero, 72 h, read-out: ED50; for Activity relative to acyclovir (fold more active): in vitro, acyclovir resistant (TK^-) HSV-1. As for the experimental part: as §1, §2, §3, §4, §5, §6

The next data set can be described thus: in vitro. Format: cell-based. Particulars: african green monkey, vero cells. How it is done: as §3, §4, §5
A further data set deals with HSV-1. Briefly: Dermal HSV-1 infection in guinea pigs, topical treatment. It is filed as in vivo, Female Hartley outbred guinea pigs. Particulars: for Comparison with U.S. ZOVIRAX in all three efficacy parameters: Mann-Whitney test, p=0.0008, 0.0008, 0.001; for Reduction in lesion number (in words): guinea pigs with dermal HSV-1 lesions, compared to vehicle; for Lesion Number, % Diff vs placebo / Lesion virus titer, % Diff vs placebo / Total Lesion Area, % Diff vs placebo: positive value = reduction vs vehicle, p=0.012; for Lesion virus titer, mean: skin taken Day 4, plaque formation in VERO cells; for Lesion Number, mean: prodrug cream (1.2% Prodrug 1 or 1.87% Prodrug 2) 2x/day on Days 1, 2 and 3. How it is done:
The formulation for Prodrugs 1 and 2 contained 5% EL-620 EMULPHOR (polyoxyethylated castor oil) (Rhone Poluenc), 5% CARBOPOL (Carboxypolymethylene, sodium salt) (B.F. Goodrich), 10% ethanol and 1.2% by weight Prodrug 1 (or 1.87% by weight Prodrug 2). The balance of the formulation consisted of water.
EL-620 EMULPHOR and water were mixed and ultrasonicated to give a clear emulsion, to which the ethanol was added. The prodrug was then added, and the mixture was ultrasonicated to give an opalescent emulsion. The sodium carbopol was then added to the emulsion and mixed until to homogeneity.
The placebo was prepared identically to the pharmaceutical compositions except that the prodrugs were omitted.
Female Hartley outbred guinea pigs, 400 to 450 grams, were obtained from Charles River Breeding Labs, Wilmington, Mass. Animals were anesthetized with 25 mg/kg ketamine and 5 mg/kg xylazine SQ. Hair on the dorsum from the shoulders to the rump was removed with electric clippers followed by two 5-10 minute applications of a chemical depilatory. A grid of four areas was demarcated with a pen on both sides of the spine at levels corresponding to mid back and rump.
Undiluted HSV-1 virus stock (0.035 ml) was applied to each different area and introduced through the skin at well-spaced sites at ten activations of a six-pronged spring-loaded vaccination instrument (Sterneedle, Pan Ray Division, Ormont Drug, Englewood, N.J.). The day of inoculation is Day 0. Approximately 250 mg of drug or placebo was applied to the areas according to the dosing regimen on Days 1, 2 and 3. Eight guinea pigs were used during the experiments allowing eight comparisons between each drug and its placebo. 5% ZOVIRAX ointment U.S.A. (Acyclovir) applied 4×/day was used as a control.
On Day 4 regrown hair on the dorsum of the guinea pigs was removed with one 3-4 minute application of a chemical depilatory. HSV lesions were counted and Polaroid pictures of the animals' backs were taken. The animals were sacrificed using CO2 gas and the full thickness skin of the back was removed by dissection. The square of the skin from each of the four treatment areas was placed into 15 mls of tissue culture medium with 2% FBS in an ice bath. The samples were then homogenized in a stomacher Lab Blender 80 (Tekmar Co.). Debris was pelleted by centrifugation and the supernatants collected and frozen at -70 C. until assay for infectivity by plaque formation in VERO cells.
The mean and standard deviation for number of lesions, total lesion area and lesion virus titer were computed for each treatment pair. Paired data (drug/vehicle) were evaluated by the Wilcoxon signed-rank test using percent differences between log10 derivatives of mean lesions severity at drug-treated sites compared to the vehicle-treated sites.

Another data set has as its system pig liver esterase. Briefly: Incubation with pig liver esterase in phosphate buffered D2O, NMR. It is filed as in vitro ADME.
A further data set concerns herpes simplex labialis. Particulars: cited from earlier work.
In a further data set the test system is Herpes Simplex Virus-1. Nature of the data set: Healing of vaginal lesions in mice caused by Herpes Simplex Virus-1. As to conditions: topical application. Format: in vivo.
[1] abbreviates: prodrug cream 2x/day on Days 1, 2 and 3, assessed Day 4, n=8.
Setting [2] is: prodrug cream 2x/day on Days 1, 2 and 3, n=8.
[3] abbreviates: prodrug cream 2x/day on Days 1, 2 and 3.

Regarding `COC(=O)CC(O[PH](=O)OCCOCn1cnc2c(=O)[nH]c(N)nc21)c1ccc(OC(=O)C(C)(C)C)cc1` (stereo not drawn) [Prodrug 3], the figures for the EC50 with TK^+ HSV 1 and with TK^- HSV 1 were 5.5 µM and 37 µM, respectively. In addition, the “Activity compared with acyclovir (in words)” value in the data set on TK^+ HSV 1 is given as “same order of magnitude as acyclovir”. In addition, in the data set “in vitro”, the CC50 was above 100 µg/mL.

For the molecule `COC(=O)CC(OP(=O)(OCCOCn1cnc2c(=O)[nH]c(N)nc21)OC(CC(=O)OC)c1ccc(OC(C)=O)cc1)c1ccc(OC(C)=O)cc1` (stereo not drawn) [Prodrug 1], in the data set with HSV-1, the “Comparison with U.S. ZOVIRAX in all three efficacy parameters” value was “worked significantly better than U.S. ZOVIRAX in all three of the efficacy parameters measured” and the “Reduction in lesion number (in words)” value is “dramatic reduction in lesion number”. Further, in the data set on HSV-1 (setting [1]), the “Lesion Number, median” value was 32.0; the “Total Lesion Area, mean” value came to 106 mm2; the “Total Lesion Area, median” value amounted to 107 mm2. Besides, in the data set on HSV-1 (setting [2]), the “Lesion virus titer, median” value is given as 3.17 log (pfu/ml) and the “Lesion virus titer, mean” value was 3.07 log (pfu/ml). In the data set with HSV-1 (setting [3]), the “Lesion Number, % Diff vs placebo” value amounted to 45%; the “Lesion virus titer, % Diff vs placebo” value is given as 96%; the “Total Lesion Area, % Diff vs placebo” value turned out to be 59%. Moreover, the “Lesion Number, mean” value in the data set with HSV-1 (assessed Day 4, n=8) was determined as 32. For the same molecule, in the data set on TK^+ HSV 1, the EC50 was 4.6 µM and the “Activity compared with acyclovir (in words)” value was “same order of magnitude as acyclovir”. Also, in the data set with TK^- HSV 1, the EC50 worked out at 17 µM and the “Activity relative to acyclovir (fold more active)” value is reported as “about 2 ×”. In “in vitro”, this molecule returned a CC50 above 100 µg/mL. For the same molecule, in the data set on pig liver esterase, the “Degradation by pig liver esterase” value was “degraded to acyclovir monophosphate and p-hydroxycinnamic”.

Regarding `Nc1nc2c(ncn2COCCO)c(=O)[nH]1` [Acyclovir, acyclovir, reference compound], the EC50 worked out at 1.4 µM in the data set with TK^+ HSV 1 and 35 µM in the data set with TK^- HSV 1. In the data set “in vitro”, this molecule yielded a CC50 above 100 µg/mL. Besides, the “Effectiveness of oral administration in treatment of cold sores” value in the data set with herpes simplex labialis (oral) is on record as “only partially effective”. For the same molecule, the “Response of cold sores to topical treatment” value in the data set with herpes simplex labialis (topical) is listed as “do not respond to the topical treatment”.

As to `COC(=O)CC(OP(=O)(OCCOCn1cnc2c(=O)[nH]c(N)nc21)OC(CC(=O)OC)c1ccc(OC(=O)C(C)(C)C)cc1)c1ccc(OC(=O)C(C)(C)C)cc1` (stereo not drawn) [Prodrug 2], in the data set on HSV-1, the “Comparison with U.S. ZOVIRAX in all three efficacy parameters” value was “worked significantly better than U.S. ZOVIRAX in all three of the efficacy parameters measured” and the “Reduction in lesion number (in words)” value is recorded as “dramatic reduction in lesion number”. Besides, in the data set on HSV-1 (setting [1]), the “Lesion Number, median” value stood at 36.0 and the “Total Lesion Area, median” value turned out to be 109 mm2. Besides, in the data set on HSV-1 (setting [2]), the “Lesion virus titer, median” value is 3.12 log (pfu/ml) and the “Lesion virus titer, mean” value is reported as 2.87 log (pfu/ml). Also, in the data set with HSV-1 (setting [3]), the “Lesion Number, % Diff vs placebo” value was found to be 35%; the “Lesion virus titer, % Diff vs placebo” value is 97%; the “Total Lesion Area, % Diff vs placebo” value turned out to be 57%. In the data set on HSV-1 (assessed Day 4, n=8), the “Lesion Number, mean” value amounted to 37. Further, in the data set on TK^+ HSV 1, the EC50 was found to be 6.3 µM and the “Activity compared with acyclovir (in words)” value is “same order of magnitude as acyclovir”. For the same molecule, in the data set with TK^- HSV 1, the EC50 is 7.5 µM and the “Activity relative to acyclovir (fold more active)” value is recorded as “about 5 ×”. In “in vitro”, this molecule showed a CC50 above 100 µg/mL. Further, in the data set with Herpes Simplex Virus-1, the “Healing of vaginal lesions” value is reported as “effective in promoting the healing of vaginal lesions in mice”.
